pEC50, pIC50: −log10 of the molar value. Calls of active or inactive are those of the source. The calls are words filed in the database; no cut-off is given here.
Key:
Histone deacetylase 1 = Histone deacetylase 1 (Homo sapiens, UniProt Q13547); assay: Inhibition of recombinant human HDAC1 using RHK-K(Ac) as substrate by homogeneous fluorescence release assay
Histone deacetylase 4 = Histone deacetylase 4 (Homo sapiens, UniProt P56524); assay: Inhibition of recombinant human HDAC4 using Boc-Lys(trifluoroacetyl)-AMC as substrate by homogeneous fluorescence release assay
[1] = target: T1, Protein deacetylase HDAC6 (Homo sapiens, UniProt Q9UBN7); assay: Inhibition of recombinant human HDAC6 using RHK-K(Ac) as substrate by homogeneous fluorescence release assay
T1 sequence (Q9UBN7 whole entry): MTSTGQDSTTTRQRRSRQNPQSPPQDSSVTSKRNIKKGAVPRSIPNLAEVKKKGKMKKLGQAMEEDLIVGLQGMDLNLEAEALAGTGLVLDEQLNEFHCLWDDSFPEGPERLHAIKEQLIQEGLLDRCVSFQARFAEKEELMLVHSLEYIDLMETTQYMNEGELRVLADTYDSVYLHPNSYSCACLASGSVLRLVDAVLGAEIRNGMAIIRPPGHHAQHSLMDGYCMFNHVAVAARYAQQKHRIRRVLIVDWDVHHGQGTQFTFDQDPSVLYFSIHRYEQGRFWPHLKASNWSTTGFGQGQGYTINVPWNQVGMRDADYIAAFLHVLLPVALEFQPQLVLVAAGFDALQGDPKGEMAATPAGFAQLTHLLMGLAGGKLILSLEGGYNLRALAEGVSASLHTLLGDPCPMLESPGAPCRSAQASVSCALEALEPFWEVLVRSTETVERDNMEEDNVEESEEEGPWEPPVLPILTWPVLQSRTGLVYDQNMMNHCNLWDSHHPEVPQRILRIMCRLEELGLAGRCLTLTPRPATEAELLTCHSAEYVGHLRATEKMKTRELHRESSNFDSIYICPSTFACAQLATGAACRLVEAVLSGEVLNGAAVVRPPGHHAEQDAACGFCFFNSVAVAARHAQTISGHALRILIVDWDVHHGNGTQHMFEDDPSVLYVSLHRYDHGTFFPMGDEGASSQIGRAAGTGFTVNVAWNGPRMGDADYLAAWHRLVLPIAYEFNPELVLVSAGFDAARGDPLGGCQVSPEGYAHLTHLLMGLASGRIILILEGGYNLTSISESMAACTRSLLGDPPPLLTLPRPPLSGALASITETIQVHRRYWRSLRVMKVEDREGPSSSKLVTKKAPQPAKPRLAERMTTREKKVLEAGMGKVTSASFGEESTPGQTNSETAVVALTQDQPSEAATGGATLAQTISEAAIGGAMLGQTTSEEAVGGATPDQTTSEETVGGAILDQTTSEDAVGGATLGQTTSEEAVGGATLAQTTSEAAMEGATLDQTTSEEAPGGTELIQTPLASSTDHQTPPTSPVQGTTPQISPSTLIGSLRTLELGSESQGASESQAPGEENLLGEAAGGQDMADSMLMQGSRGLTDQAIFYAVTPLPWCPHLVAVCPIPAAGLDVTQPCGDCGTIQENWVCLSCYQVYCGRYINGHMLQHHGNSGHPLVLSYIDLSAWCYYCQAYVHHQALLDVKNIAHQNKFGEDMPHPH

Plasmodium falciparum [2] = assay: Antiplasmodial activity against asynchronous form of Plasmodium falciparum 3D7 infected in human erythrocytes assessed as parasite growth inhibition at 10 uM after 48 hrs by SYBR green1 staining based flow cytometry relative to control; assay type: functional; settings: 3D7, 48 h
Plasmodium falciparum [3] = assay: Antiplasmodial activity against asynchronous form of Plasmodium falciparum 3D7 infected in human erythrocytes assessed as parasite growth inhibition after 48 hrs by SYBR green1 staining based flow cytometry; assay type: functional, organism-based; settings: 3D7, 48 h
Plasmodium falciparum [4] = assay: Antiplasmodial activity against Plasmodium falciparum Dd2 infected in human erythrocytes assessed as reduction in [3H]-hypoxanthine incorporation measured after 48 hrs by microbeta liquid scintillation counting method; assay type: functional, organism-based
Plasmodium falciparum [5] = assay: Antiplasmodial activity against asynchronous form of Plasmodium falciparum W2 infected in human erythrocytes assessed as parasite growth inhibition after 48 hrs by SYBR green1 staining based flow cytometry; assay type: functional, organism-based; settings: W2, 48 h
[6] = Cytotoxicity against mouse spleen cells; assay type: cell-based
[7] = Selectivity index, ratio of IC50 for mouse spleen cells to IC50 for asynchronous form of Plasmodium falciparum 3D7 infected in human erythrocytes; assay type: toxicity, cell-based; settings: read-out: Ratio IC50
HFF = assay: Cytotoxicity against HFF; assay type: cell-based; settings: Homo sapiens
[8] = target: T2, DNA (cytosine-5)-methyltransferase 3A (Homo sapiens, UniProt Q9Y6K1); assay: Inhibition of recombinant human DNMT3a C-terminal catalytic domain (623 to 908 residues) at 10 uM using 5'-biotinylated/3'-FAM-oligonucleotide as substrate measured after 1 hr in presence of Adomet by fluorescence assay relative to control
[9] = target: DNA (cytosine-5)-methyltransferase 1 (Homo sapiens, UniProt P26358); assay: Inhibition of recombinant human DNMT1 using biotinylated DNA duplex as substrate measured after 2 hrs in presence of Adomet/[methyl-3H]Adomet by topcount method
[10] = target: T2, DNA (cytosine-5)-methyltransferase 3A; assay: Inhibition of recombinant human DNMT3a C-terminal catalytic domain (623 to 908 residues) using 5'-biotinylated/3'-FAM-oligonucleotide as substrate measured after 1 hr in presence of Adomet by fluorescence assay
[11] = target: T3, Histone-lysine N-methyltransferase EHMT2 (Homo sapiens, UniProt Q96KQ7); assay: Inhibition of recombinant human N-terminal GST-fused G9a (786 to 1210 residues) expressed in Escherichia coli using biotinylated H3 (1 to 21 residues) as substrate measured after 1 hr in presence of 3H-Adomet by filter binding assay
T3 sequence (Q96KQ7 whole entry): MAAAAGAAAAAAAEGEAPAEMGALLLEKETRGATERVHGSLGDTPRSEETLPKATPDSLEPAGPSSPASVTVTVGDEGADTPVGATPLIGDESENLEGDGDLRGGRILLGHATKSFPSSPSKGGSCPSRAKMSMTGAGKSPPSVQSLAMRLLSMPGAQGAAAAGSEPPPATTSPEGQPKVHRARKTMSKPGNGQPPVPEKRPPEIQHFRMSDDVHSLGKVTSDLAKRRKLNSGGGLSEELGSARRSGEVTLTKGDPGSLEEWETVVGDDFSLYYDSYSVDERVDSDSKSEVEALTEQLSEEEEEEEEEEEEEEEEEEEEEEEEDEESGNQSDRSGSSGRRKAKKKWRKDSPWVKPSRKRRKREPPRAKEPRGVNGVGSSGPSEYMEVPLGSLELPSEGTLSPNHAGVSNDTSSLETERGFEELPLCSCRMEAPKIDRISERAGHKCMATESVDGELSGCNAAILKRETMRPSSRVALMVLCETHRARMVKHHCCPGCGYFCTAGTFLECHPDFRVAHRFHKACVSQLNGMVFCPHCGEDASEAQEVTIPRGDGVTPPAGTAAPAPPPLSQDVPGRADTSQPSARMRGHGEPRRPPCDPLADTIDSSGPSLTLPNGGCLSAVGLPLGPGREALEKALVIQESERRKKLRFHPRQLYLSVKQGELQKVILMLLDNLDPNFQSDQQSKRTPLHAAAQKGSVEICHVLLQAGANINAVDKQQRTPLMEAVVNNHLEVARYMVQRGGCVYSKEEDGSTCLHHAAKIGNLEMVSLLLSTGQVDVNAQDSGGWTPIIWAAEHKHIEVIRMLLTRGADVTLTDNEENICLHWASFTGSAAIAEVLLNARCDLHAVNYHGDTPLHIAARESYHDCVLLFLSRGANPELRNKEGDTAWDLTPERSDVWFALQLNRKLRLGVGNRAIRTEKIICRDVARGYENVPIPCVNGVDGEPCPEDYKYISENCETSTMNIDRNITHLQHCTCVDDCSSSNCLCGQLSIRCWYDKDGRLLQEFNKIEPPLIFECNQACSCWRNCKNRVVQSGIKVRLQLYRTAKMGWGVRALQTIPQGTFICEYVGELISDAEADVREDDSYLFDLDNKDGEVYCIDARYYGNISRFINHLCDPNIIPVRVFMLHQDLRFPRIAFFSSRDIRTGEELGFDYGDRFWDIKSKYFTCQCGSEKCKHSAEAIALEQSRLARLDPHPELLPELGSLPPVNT

Plasmodium berghei = assay: Antimalarial activity against Plasmodium berghei ANKA infected in BALB/c mouse assessed as reduction in parasitemia at 10 mg/kg, po administered once daily for 4 days by Giemsa-staining based microscopic analysis; assay type: functional, organism-based

Chain of DNA (cytosine-5)-methyltransferase 1 (P26358 whole entry, the tested form may be a part): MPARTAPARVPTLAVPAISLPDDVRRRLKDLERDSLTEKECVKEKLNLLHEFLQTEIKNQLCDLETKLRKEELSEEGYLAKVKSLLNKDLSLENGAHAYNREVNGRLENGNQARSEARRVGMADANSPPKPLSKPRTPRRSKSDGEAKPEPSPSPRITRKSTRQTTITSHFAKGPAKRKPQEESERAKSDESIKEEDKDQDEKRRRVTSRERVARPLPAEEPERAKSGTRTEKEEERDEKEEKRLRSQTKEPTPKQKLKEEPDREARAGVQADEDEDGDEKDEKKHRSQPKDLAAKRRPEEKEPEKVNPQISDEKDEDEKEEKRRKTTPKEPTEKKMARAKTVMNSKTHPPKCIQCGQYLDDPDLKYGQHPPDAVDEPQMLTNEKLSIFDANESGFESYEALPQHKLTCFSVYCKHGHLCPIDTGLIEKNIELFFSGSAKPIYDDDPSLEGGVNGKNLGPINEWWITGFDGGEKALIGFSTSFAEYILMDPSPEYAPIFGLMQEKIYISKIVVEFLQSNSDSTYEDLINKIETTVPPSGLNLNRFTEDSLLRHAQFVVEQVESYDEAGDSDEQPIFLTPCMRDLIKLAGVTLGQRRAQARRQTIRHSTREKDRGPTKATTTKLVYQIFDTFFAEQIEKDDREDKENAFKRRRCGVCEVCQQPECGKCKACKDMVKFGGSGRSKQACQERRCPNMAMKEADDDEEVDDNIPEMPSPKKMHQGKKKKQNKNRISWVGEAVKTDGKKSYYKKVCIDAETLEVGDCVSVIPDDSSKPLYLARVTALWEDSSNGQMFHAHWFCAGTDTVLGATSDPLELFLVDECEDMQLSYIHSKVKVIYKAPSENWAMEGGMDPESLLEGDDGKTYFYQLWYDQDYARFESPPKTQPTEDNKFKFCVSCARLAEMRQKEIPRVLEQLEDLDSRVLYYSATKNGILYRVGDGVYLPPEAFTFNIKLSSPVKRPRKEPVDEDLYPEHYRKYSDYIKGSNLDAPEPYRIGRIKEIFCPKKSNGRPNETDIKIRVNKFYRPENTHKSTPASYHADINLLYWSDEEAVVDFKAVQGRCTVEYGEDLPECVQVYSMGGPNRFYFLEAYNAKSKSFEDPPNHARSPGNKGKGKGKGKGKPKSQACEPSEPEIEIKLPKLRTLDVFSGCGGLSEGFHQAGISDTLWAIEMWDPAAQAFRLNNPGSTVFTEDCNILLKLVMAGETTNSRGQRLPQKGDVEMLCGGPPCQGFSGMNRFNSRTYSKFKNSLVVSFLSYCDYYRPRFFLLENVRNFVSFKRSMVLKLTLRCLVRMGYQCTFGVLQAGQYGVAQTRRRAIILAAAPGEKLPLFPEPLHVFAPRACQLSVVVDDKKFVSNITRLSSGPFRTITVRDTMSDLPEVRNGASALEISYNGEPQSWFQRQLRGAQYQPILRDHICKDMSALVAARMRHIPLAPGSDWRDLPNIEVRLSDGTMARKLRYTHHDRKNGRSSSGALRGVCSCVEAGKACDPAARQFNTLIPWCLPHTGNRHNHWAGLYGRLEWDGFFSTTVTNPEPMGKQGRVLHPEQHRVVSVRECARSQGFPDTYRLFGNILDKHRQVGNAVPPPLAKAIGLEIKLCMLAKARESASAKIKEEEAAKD
Chain of Histone deacetylase 4 (P56524 whole entry): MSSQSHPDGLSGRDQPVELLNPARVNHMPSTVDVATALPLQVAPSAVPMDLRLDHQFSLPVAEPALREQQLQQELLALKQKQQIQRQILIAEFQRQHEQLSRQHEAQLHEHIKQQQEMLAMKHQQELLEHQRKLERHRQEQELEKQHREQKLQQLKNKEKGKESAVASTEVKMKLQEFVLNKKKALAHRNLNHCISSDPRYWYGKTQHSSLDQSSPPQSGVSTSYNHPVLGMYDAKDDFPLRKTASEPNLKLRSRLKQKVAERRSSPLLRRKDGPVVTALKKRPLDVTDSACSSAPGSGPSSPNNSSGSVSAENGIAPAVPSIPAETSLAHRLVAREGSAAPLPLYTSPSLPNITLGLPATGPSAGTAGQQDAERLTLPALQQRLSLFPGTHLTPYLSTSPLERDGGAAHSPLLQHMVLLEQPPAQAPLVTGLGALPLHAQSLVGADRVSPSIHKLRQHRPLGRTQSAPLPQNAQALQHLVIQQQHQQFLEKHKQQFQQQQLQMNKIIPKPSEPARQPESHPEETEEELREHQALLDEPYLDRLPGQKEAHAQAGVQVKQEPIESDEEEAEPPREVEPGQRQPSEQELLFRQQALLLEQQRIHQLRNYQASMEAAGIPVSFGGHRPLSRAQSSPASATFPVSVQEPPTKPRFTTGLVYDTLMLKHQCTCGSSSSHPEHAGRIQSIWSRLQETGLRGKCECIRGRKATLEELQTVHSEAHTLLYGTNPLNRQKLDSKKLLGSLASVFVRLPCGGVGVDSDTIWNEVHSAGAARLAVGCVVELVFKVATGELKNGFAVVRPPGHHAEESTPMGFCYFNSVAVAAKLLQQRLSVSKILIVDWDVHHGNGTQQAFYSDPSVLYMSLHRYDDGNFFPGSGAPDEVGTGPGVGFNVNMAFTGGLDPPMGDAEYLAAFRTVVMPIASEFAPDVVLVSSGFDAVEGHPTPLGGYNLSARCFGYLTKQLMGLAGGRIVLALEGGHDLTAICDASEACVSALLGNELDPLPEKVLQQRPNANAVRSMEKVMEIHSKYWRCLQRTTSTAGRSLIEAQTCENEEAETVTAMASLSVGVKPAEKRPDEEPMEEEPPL
Chain of Histone deacetylase 1 (Q13547 whole entry): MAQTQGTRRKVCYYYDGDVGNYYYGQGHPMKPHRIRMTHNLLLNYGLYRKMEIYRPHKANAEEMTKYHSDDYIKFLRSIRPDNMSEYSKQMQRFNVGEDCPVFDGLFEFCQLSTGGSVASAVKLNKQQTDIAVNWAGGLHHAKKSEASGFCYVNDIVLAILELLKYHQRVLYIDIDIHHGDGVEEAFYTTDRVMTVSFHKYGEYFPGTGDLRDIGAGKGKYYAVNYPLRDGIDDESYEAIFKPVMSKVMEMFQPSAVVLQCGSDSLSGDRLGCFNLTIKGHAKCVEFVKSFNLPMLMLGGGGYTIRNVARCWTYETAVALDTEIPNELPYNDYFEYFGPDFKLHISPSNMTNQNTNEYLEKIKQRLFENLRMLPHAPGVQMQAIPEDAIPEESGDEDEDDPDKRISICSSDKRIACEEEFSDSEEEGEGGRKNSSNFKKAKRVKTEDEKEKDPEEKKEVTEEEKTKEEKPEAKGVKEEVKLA
T2 sequence (Q9Y6K1 whole entry, looked up, the tested form may be a part): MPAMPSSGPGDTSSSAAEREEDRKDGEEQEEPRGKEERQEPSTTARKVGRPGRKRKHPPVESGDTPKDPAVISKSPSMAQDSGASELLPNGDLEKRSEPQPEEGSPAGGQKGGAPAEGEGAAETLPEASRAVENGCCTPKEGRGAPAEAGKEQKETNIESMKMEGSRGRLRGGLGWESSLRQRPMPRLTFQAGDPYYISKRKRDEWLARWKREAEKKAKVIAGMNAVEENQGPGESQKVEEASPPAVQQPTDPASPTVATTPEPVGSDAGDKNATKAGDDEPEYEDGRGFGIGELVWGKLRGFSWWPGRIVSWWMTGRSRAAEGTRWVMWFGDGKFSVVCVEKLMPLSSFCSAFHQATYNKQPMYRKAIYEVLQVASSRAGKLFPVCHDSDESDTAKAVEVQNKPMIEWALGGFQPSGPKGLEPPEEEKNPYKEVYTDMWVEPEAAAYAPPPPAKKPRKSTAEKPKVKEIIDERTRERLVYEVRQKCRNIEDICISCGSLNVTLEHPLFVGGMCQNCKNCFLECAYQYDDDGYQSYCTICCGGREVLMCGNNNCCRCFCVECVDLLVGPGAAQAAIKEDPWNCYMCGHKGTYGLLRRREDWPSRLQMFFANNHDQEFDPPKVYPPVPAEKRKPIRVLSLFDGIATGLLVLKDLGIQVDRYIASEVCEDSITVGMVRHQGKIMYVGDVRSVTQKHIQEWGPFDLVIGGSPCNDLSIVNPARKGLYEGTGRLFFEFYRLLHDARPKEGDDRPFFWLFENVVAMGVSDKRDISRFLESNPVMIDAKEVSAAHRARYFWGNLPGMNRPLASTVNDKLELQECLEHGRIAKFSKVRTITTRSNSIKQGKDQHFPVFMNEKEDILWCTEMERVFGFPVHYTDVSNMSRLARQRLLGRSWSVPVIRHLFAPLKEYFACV

SMILES	pIC50 (Histone deacetylase 1)	pIC50 (Histone deacetylase 4)	pIC50 [1]	inhibition at 10 µM (Plasmodium falciparum [2]) [%]	pIC50 (Plasmodium falciparum [3])	pEC50 [9]	pEC50 [10]	further results
O=C(CCCCSc1nc(-c2ccc3ccccc3c2)cc(=O)[nH]1)NO	5.77	< 4.30	7.92	97.9	7.60			
COc1cc2nc(N3CCCN(C)CC3)nc(NC3CCN(Cc4ccccc4)CC3)c2cc1OC				100	7.63 to 7.68			pIC50 (Plasmodium falciparum [4]): 8.01; pIC50 (Plasmodium falciparum [5]): 7.78; pIC50 [6]: 6.26; selectivity ratio [7]: 23; pIC50 (HFF): 5.30
c1ccc(COc2ccc3c(NC4CCN(Cc5ccccc5)CC4)nc(N4CCN(c5ccccc5)CC4)nc3c2)cc1				100	7.17			inhibition [8]: 43%
COc1cc2c(NCCNc3cccc4ccccc34)nc(N3CCN(c4ccccc4)CC3)nc2cc1OCc1ccccc1				99.6	7.25			inhibition [8]: 15%
COc1cc2c(NC3CCN(C(C)C)CC3)nc(C3CCCCC3)nc2cc1OCCCN1CCCC1				100	7.16 to 7.17			pIC50 (Plasmodium falciparum [4]): 7.77; pIC50 (Plasmodium falciparum [5]): 7.41; pIC50 [6]: 5.84; selectivity ratio [7]: 21; pIC50 (HFF): 5.64
O=C(Cc1ccccc1)Nc1ccc(C(=O)NO)nc1	6.70	4.96	7.43	97.8	< 6.00			
COc1ccc(CCN2CCC(Nc3nc(NCc4ccc(F)cc4)nc4cc(OC)c(OC)cc34)CC2)cc1				100	7.74	< 4.00	5.28	pEC50 [11]: 4.50; pIC50 (Plasmodium falciparum [4]): 8.21; pIC50 (Plasmodium falciparum [5]): 7.59; pIC50 [6]: 6.10; selectivity ratio [7]: 44; pIC50 (HFF): 5.49
c1ccc(N2CCN(c3nc(NC4CCN(Cc5ccc6ccccc6c5)CC4)c4ccccc4n3)CC2)cc1				100	6.86	< 4.00	5.62	
c1ccc(CCCN2CCC(Nc3nc(N4CCN(c5ccccc5)CC4)nc4ccccc34)CC2)cc1				100	7.12	< 4.00	5.29	
O=C(Cc1cccc2ccccc12)Nc1ccc(C(=O)NO)nc1	6.52	< 4.30	7.59	97.9	< 6.00			
O=C(CCCCCSc1nc(-c2ccc(-c3ccccc3)cc2)cc(=O)[nH]1)NO	7.00	< 4.30	8.05	97.4	7.29			
COc1ccc(CCN2CCC(Nc3nc(NCc4ccc(F)cc4)nc4ccccc34)CC2)cc1				100	7.47	< 4.00	5.32	pEC50 [11]: 4.29
O=C(CCCCCSc1nc(-c2ccc3ccccc3c2)cc(=O)[nH]1)NO	6.00	< 4.30	7.77	97.4	7.10			
O=C(/C=C/c1ccc(NC(=O)Cc2cccc3ccccc23)cn1)NO	7.00	5.57	7.82	96.8 to 97.9	7.68 to 7.99			pIC50 (Plasmodium falciparum [4]): 7.87; pIC50 (Plasmodium falciparum [5]): 7.82; pIC50 [6]: 6.92; selectivity ratio [7]: 9; pIC50 (HFF): < 5.00
c1ccc(CCN2CCC(Nc3nc(N4CCN(c5ccccc5)CC4)nc4ccccc34)CC2)cc1				100	7.00	< 4.00	5.27	
CCN(CC)CCCC(C)Nc1ccnc2cc(Cl)ccc12 (stereo not drawn)								Activity (Plasmodium berghei): Active

Reference: ChEMBL document CHEMBL4325862, “Identification of novel quinazoline derivatives as potent antiplasmodial agents” (Eur J Med Chem, 2019)
